# Assay results as given in patent US20040208864A1, “Methods of improving health-related quality of life in individuals with systemic lupus erythematosus” (priority 2002, published 2004).
# Entries after “also recorded” stand apart in the source; their conditions may differ.
# What was measured:
# anti-dsDNA antibodies [1] = assay: Anti-dsDNA antibody levels (Farr assay), Phase II/III study; assay type: in vivo, human; conditions: for Frequency of patients with sustained reductions in anti-dsDNA antibodies compared with placebo: Phase II/III (90-05), sustained = at least 10% below baseline for at least 2/3 of values
# Description: (§1) Two studies (Phase II/III or 90-05, and Phase III or 90-09) were conducted as described in Examples 1-2 and 12. […] Patients completed the SF-36® assessment at entry, followed by three additional time points in the trial depending on how long they participated. […] The Phase II/III trial enrolled 198 lupus patients with high-affinity antibodies who were treated for up to 18 months.
# (§2) Patients selection, duration of treatment, assay type were in these studies are further detailed in Table 5. All laboratory values were determined at a central laboratory. Baseline anti-dsDNA antibody levels were calculated as the mean of the last 2 determinations prior to initial administration of the study drug. Baseline values for all other laboratory measures were determined immediately before administration of the study drug. The upper limit of normal for the anti-dsDNA antibody assay at the central laboratory was 5 IU/ml.
# (§3) (Sustained reduction of 10% was based on the percent coefficient of variation of the Farr assay as reported in the assay labeling. At least ⅔ of observations were required to meet this criterion to assure the majority of values were represented for a patient.) All anti-dsDNA antibody values collected were used to determine if a patient met the criterion for sustained reduction. Anti-dsDNA antibody values subsequent to HDCC were considered treatment failures and these values were imputed to have a value equivalent to baseline.
# SLE patients [2] = assay: SF-36 health-related quality of life, Phase III (90-09) trial of LJP 394 vs placebo; assay type: in vivo, human; conditions: for Longitudinal differences in HRQOL (SF-36 domain scores) drug-treated vs placebo-treated: various time points, all patients
# Description: Patients were treated with weekly doses of 100 mg of LJP 394 or with placebo. Patients were also permitted to receive certain other treatments including some but not all immunosuppressive drugs using a definition similar to Example 2. This randomized, double-blind, placebo-controlled study was conducted at more than 70 major medical centers in North America and Europe. Patients could remain in the study for up to 92 weeks.
# The prospectively defined analysis groups were the intent-to-treat population and patients with impaired renal function. The intent-to-treat population was defined as patients with high-affinity antibodies to LJP 394. The patients with high-affinity antibodies to LJP 394 were those with a Kd′<0.8 mg/ml. Patients with impaired renal function were defined as having a serum creatinine level of 1.5 mg/dL to 3.5 mg/dL at baseline. In general, patients with impaired renal function are at greater risk of progressing to renal flare, kidney failure, and dialysis.
# Complement changes were evaluated by determining the mean change from baseline in the complement protein C3 that indicates overall complement consumption due to active inflammation. Antibody changes were evaluated by determining the mean percent change of antibodies to dsDNA from baseline. Patients' assessments of disease activity and health-related quality of life were measured on a regular basis as well as at the time of, and 30 days following, a documented renal flare.
# as §1
# As described above in the detailed description of the invention, HRQOL is an assessment of a patient's sense of physical and mental well-being or how they feel. In the Phase II/III and Phase III studies, HRQOL was measured by a standard scoring instrument called the Medical Outcomes Study 36-Item Short Form (SF-36′). The SF-36® Health Survey is a standardized tool used in clinical research to measure a patient's assessment of quality of life outcomes related to disease and disease treatment. The Survey asked 36 questions related to how well a patient can perform day-to-day activities and how they feel emotionally. The answers were then reported as scores in eight domains. These domains are physical functioning, role-physical, bodily pain, general health, vitality, social functioning, role-emotional and mental health. SF-36@ was measured in both Phase III and II/III.
# SLE patients [3] = assay: Documented renal flares, Phase III study; assay type: in vivo, human
# Description: The primary endpoint was time to renal flare. A renal flare was defined as a significant, reproducible increase in serum creatinine, urine protein or blood in the urine as described in Example 2. The secondary endpoint was time to treatment with HDCC. HDCC was defined as any dose of cyclophosphamide or an increase in prednisone of 15 mg/day or higher resulting in a final dose greater than 20 mg/day.
# The incidences of renal flares in patients of both sustained reduction group and the other group were documented and the results are shown in Table 7 for Phase III and Table 8 for Phase II/III.
# B cells = conditions: rats; cited from earlier work
# anti-dsDNA antibodies [4] = assay: Anti-dsDNA antibody levels (Farr assay), Phase III study; assay type: in vivo, human; conditions: for Frequency of patients with sustained reductions in anti-dsDNA antibodies compared with placebo: Phase III (90-09), sustained = at least 10% below baseline for at least 2/3 of values
# Description: as §1, §2, §3
substance,measurement,setting,value
"abetimus sodium (sense GTGTGTGTGTGTGTGTGTGT; antisense CACACACACACACACACACA; sense: DNA, backbone not given here; antisense: DNA, backbone and methylation of C not given here; four deoxynucleotide duplexes bound to triethylene glycol valency platform) [LJP 394, tetravalent conjugate: four (CA)10.(TG)10 double-stranded 20-mer oligonucleotides on a triethylene glycol based valency platform]",# Patients with sustained reduction,anti-dsDNA antibodies [1]; Phase II/III,54
same,"# Patients, Other (no sustained reduction)",anti-dsDNA antibodies [1]; Phase II/III,38
same,Frequency of patients with sustained reductions in anti-dsDNA antibodies compared with placebo,anti-dsDNA antibodies [1],higher frequency; also recorded: more frequent
same,Frequency of patients with sustained reductions in anti-dsDNA antibodies compared with placebo,anti-dsDNA antibodies [1]; listed as LJP394,Four times as many
same,Change in anti-dsDNA antibodies from baseline compared with placebo,"anti-dsDNA antibodies [1]; Phase II/III, p<0.0001",statistically significant decrease
same,Mean SF-36 domain scores after renal flare compared with placebo,SLE patients [2]; after renal flare,remained better than placebo patients; also recorded: remained better than placebo patients'
same,Mean SF-36 domain scores before renal flare compared with placebo,SLE patients [2]; before renal flare,improved HRQOL scores before the renal flare compared with placebo; also recorded: higher for LJP394 treated patients in all domains
same,SF-36 domain score changes pre/post renal flare compared with placebo,SLE patients [2]; pre vs post renal flare,seven of eight domains; also recorded: better HRQOL compared with Placebo patients in all domains except physical functioning
same,Longitudinal differences in HRQOL (SF-36 domain scores) drug-treated vs placebo-treated,SLE patients [2],not significantly different
same,Longitudinal differences in HRQOL (SF-36 domain scores) drug-treated vs placebo-treated,SLE patients [2]; listed as Riquent™,No substantive differences
same,# Renal flares in Other patients,SLE patients [3],14
same,# Renal flares in patients with sustained reduction,SLE patients [3],3
same,Induction of antigen-specific B-cell tolerance,B cells,induce antigen-specific B-cell tolerance
same,# Patients with sustained reduction,anti-dsDNA antibodies [4]; Phase III,80
same,"# Patients, Other (no sustained reduction)",anti-dsDNA antibodies [4]; Phase III,65
same,Frequency of patients with sustained reductions in anti-dsDNA antibodies compared with placebo,anti-dsDNA antibodies [4],higher frequency; also recorded: Four times as many; also recorded: Twice as many; also recorded: more frequent
same,Frequency of patients with sustained reductions in anti-dsDNA antibodies compared with placebo,anti-dsDNA antibodies [4]; listed as LJP394,Twice as many
same,Change in anti-dsDNA antibodies from baseline compared with placebo,"anti-dsDNA antibodies [4]; Phase III, p<0.0001",statistically significant decrease
